{"source": "patent US20210221777A1", "about": "“NOVEL COMPOUNDS RELATED TO MY[…] METHODS OF TREATING CANCER” (priority 2020, published 2021)", "key": {"[1]": {"experiment": "Shelf life / preservation studies (1H NMR)", "from_the_text": "Our final approach reinvestigating 1 involved exploring the relevance of the C(8)-OH stereocenter and labile C-14/C-19 diene system for their SAR significance related to the cytotoxicity of 1 against tumor cell lines."}, "[2]": {"tested_on": "hypoxia-induced factor (HIF-1) signaling in T47D breast tumor cells", "settings": "cited from earlier work; for IC50: hypoxia-induced, read-out: IC50 against HIF-1 signaling"}, "[3]": {"tested_on": "pancreatic (PANC-1) tumor cell lines", "experiment": "Cytotoxicity vs. PANC-1 tumor cell line"}, "[4]": {"tested_on": "pancreatic (PANC-1), liver (HepG2), and colon (HCT-116) tumor cell lines", "experiment": "Cytotoxicity of fresh 1, summary over PANC-1, HepG2 and HCT-116", "assay_type": "cell-based"}, "[5]": {"experiment": "Sample storage degradation experiments a-e followed by LCMS", "assay_type": "physicochemical", "settings": "24 hrs", "from_the_text": "Recent work in our laboratory using HPLC during the scale up isolation of mycothiazole (1) hinted that mycothiazole-4,19-diol (7)^6 may also be an artifact of isolation encountered during routine purification of degraded 1. To test this hypothesis, we subjected freshly purified 1 to a variety of sample storage experimental conditions (a-e) summarized in Table 2. Analytical (LCMS) data was used to determine purity outcomes of 1 in terms of its observed degradation which is summarized at the bottom of Table 2 and in FIG. 2. […] Furthermore, the diagnostic MS m/z ion peak (439, [M+H]^+)^6 characteristic of 7 was also observed in samples b-c and e, but not in a or d, as shown in FIG. 2. Selected examples included molecular ion peaks of 421 m/z and 437 m/z. We were unable to pursue full or even partial structure elucidation of these components or the observed 439 m/z ion peak, using NMR studies, due to insufficient material."}, "[6]": {"tested_on": "colon (HCT-116) tumor cell line", "settings": "literature value, may be inaccurate due to compound degradation, read-out: HCT 116 IC50 (Sashidhara et al., 2009); cited from earlier work"}, "[7]": {"tested_on": "human colon tumor (HCT-15) cell lines", "settings": "Manta et al., read-out: GI50 against HCT-15; cited from earlier work"}, "solid tumor cell lines": {"tested_on": "solid tumor cell lines", "settings": "read-out: cytotoxicity IC50 against a wide variety of solid tumor cell lines; range over literature cell lines; cited from earlier work"}, "[8]": {"tested_on": "colon (HCT-116) tumor cell line", "experiment": "Cytotoxicity vs. HCT 116 tumor cell line", "assay_type": "cell-based", "settings": "this work, ± SEM, N = 2"}, "[9]": {"settings": "read-out: PANC-1 IC50, PANC-1, this work, ± SEM, N = 2"}, "[10]": {"settings": "a) standard protocol: amber vial, Argon, dark desiccator under vacuum"}, "[11]": {"settings": "b) MeOH-O2 (air stream), amber vial, room temp. 22° C."}, "[12]": {"settings": "c) MeOH-N2 (N2 stream), amber vial, room temp. 22° C."}, "[13]": {"settings": "d) refrigeration 4° C., amber vial, Argon"}, "[14]": {"settings": "e) direct light (hv), clear vial, 24° C."}}, "note": "Read-outs that look alike come from different tables or passages of the source."}
{"compound": "8-O-acetyl-mycothiazole [8-O-acetyl-mycothiazole (2)]", "values": [{"measurement": "time stable in preservation studies using 1H NMR", "setting": "[1]; stored by standard storage protocol (Table 2a), more stable than 1", "value": "≥ 6", "unit": "months"}, {"measurement": "IC50", "setting": "[2]", "value": "~1", "unit": "nM"}, {"measurement": "IC50", "setting": "[3]; [9]", "value": 1.3, "unit": "nM"}]}
{"compound": "C=CC/C=C\\Cc1csc(C(C)(C)C(=O)C/C=C\\C(=C)CCNC(=O)OC)n1", "note": "[8-Oxo-mycothiazole (8), 8-oxo-mycothiazole]", "values": [{"measurement": "fold less potent than 1 (cytotoxicity)", "setting": "[3]; PANC-1, relative to 1", "value": "10,000 times"}, {"measurement": "IC50", "setting": "[3]; [9]", "value": 2000, "unit": "nM"}]}
{"compound": "C=CC/C=C\\Cc1csc(C(C)(C)[C@H](O)C/C=C\\C(=C)CCNC(=O)OC)n1", "note": "[mycothiazole (1), mycothiazole]", "values": [{"measurement": "increase in potency of fresh 1 versus earlier data", "setting": "[4]; PANC-1, HepG2, HCT-116", "value": "tenfold increase"}, {"measurement": "IC50", "setting": "[4]; range over PANC-1, HepG2, HCT-116, read-out: IC50 of fresh 1 across three tumor cell lines", "value": "0.16 to 0.36", "unit": "nM"}, {"measurement": "analytical LCMS data UV-PDA maximum absorbance units of 1", "setting": "[5]; [10]", "value": 500000, "unit": "AU"}, {"measurement": "purity outcomes of 1 involving its degradation", "setting": "[5]; [10]", "value": "minimal degradation"}, {"measurement": "MS-TIC of visible impurity peaks", "setting": "[5]; [11]", "value": "~45% relative % relative abundance of m/z io"}, {"measurement": "analytical LCMS data UV-PDA maximum absorbance units of 1", "setting": "[5]; [11]", "value": 500000, "unit": "AU"}, {"measurement": "purity outcomes of 1 involving its degradation", "setting": "[5]; [11]", "value": "partial degradation"}, {"measurement": "MS-TIC of visible impurity peaks", "setting": "[5]; [12]", "value": "~45% relative % relative abundance of m/z io"}, {"measurement": "analytical LCMS data UV-PDA maximum absorbance units of 1", "setting": "[5]; [12]", "value": 500000, "unit": "AU"}, {"measurement": "purity outcomes of 1 involving its degradation", "setting": "[5]; [12]", "value": "partial degradation"}, {"measurement": "MS-TIC of visible impurity peaks", "setting": "[5]; [13]", "value": "~20% relative % relative abundance of m/z io"}, {"measurement": "analytical LCMS data UV-PDA maximum absorbance units of 1", "setting": "[5]; [13]", "value": 500000, "unit": "AU"}, {"measurement": "purity outcomes of 1 involving its degradation", "setting": "[5]; [13]", "value": "minimal degradation"}, {"measurement": "MS-TIC of visible impurity peaks", "setting": "[5]; [14]", "value": "~60% relative % relative abundance of m/z io"}, {"measurement": "analytical LCMS data UV-PDA maximum absorbance units of 1", "setting": "[5]; [14]", "value": 280000, "unit": "AU"}, {"measurement": "purity outcomes of 1 involving its degradation", "setting": "[5]; [14]", "value": "severe degradation"}, {"measurement": "shelf life", "setting": "[1]; pure 1, storage protocols a or d of Table 2", "value": "3-6 weeks"}, {"measurement": "stability on storage", "setting": "[1]; stored at 4° C.", "value": "unstable"}, {"measurement": "IC50", "setting": "[6]", "value": "3.8 ± 0.24", "unit": "nM"}, {"measurement": "GI50", "setting": "[7]", "value": 44000, "unit": "nM"}, {"measurement": "IC50", "setting": "[2]", "value": "~1", "unit": "nM"}, {"measurement": "IC50", "setting": "solid tumor cell lines", "value": "0.36 to 13.8", "unit": "nM"}, {"measurement": "IC50", "setting": "[3]; Homo sapiens, PANC-1, read-out: PANC-1 IC50", "value": 0.16, "unit": "nM"}]}
{"compound": "C=CC/C=C\\Cc1csc(C(C)(C)[C@H](O)C/C=C/C(O)(CO)CCNC(=O)OC)n1", "note": "(stereo partly drawn) [mycothiazole-4,19-diol (7), mycothiazole-4,19-diol, reference compound]", "values": [{"measurement": "IC50", "setting": "[8]", "value": "> 1000", "unit": "nM"}, {"measurement": "times less potent than 1 or 2 at suppression of hypoxia-induced HIF-1 activation", "setting": "[2]", "value": "at least 1000 times"}]}
